{"source": "patent US20090137457A1", "about": "“Pyrimidinedione derivatives” (CoNCERT Pharmaceuticals, Inc., priority 2007, published 2009)", "origin": "cited, not measured here", "conditions": "Phase I and II clinical trials; Christopher R et al., ADA 2007 (Abs 0495-P)"}
{"compound": "Cn1c(=O)cc(N2CCC[C@@H](N)C2)n(Cc2ccccc2C#N)c1=O", "note": "[Alogliptin]", "values": [{"measurement": "tolerability in clinical trials", "value": "generally well tolerated"}]}
